# Test results taken from patent publication US5736529A, “Use of NAD-related compounds in the treatment of neural trauma to inhibit neurodegeneration” (priority 1996, dated 1998).
# Like-named read-outs stand apart in the source and are kept apart here.
# Experiments:
# [1] = HPLC determination of tBuOOH in mice brains (pharmacokinetic profile); type: in vivo, mouse (male C57BL/6)
# Procedure: Male C57BL/6 mice, 8 months old, were treated ICV with 110 mg/kg of tBuOOH. At various times, brains were removed, dissected and frozen on dry ice. Later the brains were homogenized in acetonitrile and centrifuged for 5 minutes at 12,000 g.
# [2] = tested on: DNA in brain regions of C57BL/6 mice; assay: Second experiment, tBuOOH induced DNA fragmentation (FIG. 2, FIG. 3); type: in vivo, mouse (male C57BL/6)
# Procedure: A second experiment was conducted to measure the degree of DNA fragmentation. […] Male C57BL/6 mice, of ages 2, 8 or 24 months old, were treated with tBuOOH ICV. Mice in the 20 minute group were treated with 110 mg/kg of tBuOOH and maintained for 20 minutes until brains were removed and analyzed for DNA fragmentation. This dose of tBuOOH induces cellular necrosis in a number of brain regions. Mice in the 48 hour group were given 22 mg/kg of tBuOOH and maintained for 48 hours. This dose of tBuOOH induces apoptosis and a small amount of necrosis in a number of brain regions.
# NADPH = assay: Pyridine dinucleotide quantitation, NADPH in brain regions; type: in vivo, mouse (male C57BL/6); settings: 110 mg/kg ICV, 8 month old mice
# From the text: NADPH and NADH are stable in base. Fortunately, the cyanide reaction proceeds optimally in base.
# [3] = tested on: DNA in brain regions of C57BL/6 mice; settings: for DNA fragmentation, low dose: 21.9 mg/kg
# Procedure: 24 month old C57BL/6 mice were divided into 3 groups of 3 mice each. One group was the control. A second group of mice was treated ICV with 109.7 mg/kg t-BuOOH and then sacrificed 20 minutes later. A third group of mice were treated ICV with 21.9 mg/kg t-BuOOH and then sacrificed 48 hours later. […] The brains were removed from the treated mice and were sectioned into the following six regions: cortex, striatum, hippocampus, thalamus, midbrain and cerebellum. DNA damage has been expressed as a ratio of the damaged DNA to the total DNA per gram of tissue.
# DNA fragmentation was assessed in […] samples of tissue from a brain region. A volume of 0.2 ml of ice cold lysing buffer (10 mM Tris-HCl, pH 7.5, 1 mM EDTA, and 0.2% Triton X-100) was added to each section, which was then centrifuged at 12,000 g for 25 minutes to separate the intact from the fragmented DNA. The supernatant (containing the fragmented DNA) was transferred to a separate tube. 0.2 ml of the lysing buffer was added to the pellet with sonication for 10 seconds. The amount of DNA in the supernatant and pellet fractions was determined by a fluorimetric method, using the dye Hoechst 33258. DNA damage is presented as the ratio of DNA in the supernatant to the total DNA in the pellet and supernatant per gram of tissue^17.
# 8 month old mice were divided into 4 groups (n=5 each). Group 1 was the control. Mice in group 2 were treated with 109.7 mg/kg t-BuOOH and then sacrificed 20 minutes later. […] The same procedures were performed as with the 24 month old mice.
# C57BL/6 mice = assay: Behavior and survival of mice after ICV tBuOOH; type: in vivo, mouse (male C57BL/6)
# Procedure: In general male C57BL/6 mice (2, 8 or 24 months old) were anesthetized with ketamine and xylazine (200 and 2 mg/kg, ip). They were injected ICV with tBuOOH in doses of approximately 22 or 110 mg/kg. This amounts to 1 or 5 μl of a 70% solution of tBuOOH injected slowly into a lateral cerebral ventricle. A mouse brain weighs about 400 mg. […] Animals recovered from anesthesia about 30 minutes or so after tBuOOH administration. […] Low dose mice survived for 48 hours or more.
# NAD = settings: 110 mg/kg ICV; 8 month old mice
# Procedure: Male C57 B 1/6 mice, 8 months old, were treated ICV with tBuOOH (110 mg/kg) and maintained for 2, 5, 20 or 120 minutes. Anesthetized tBuOOH treated mice were immersed in liquid nitrogen to freeze their brains. The frozen brains were removed and dissected over dry ice. The brain regions were homogenized and analyzed by HPLC to determine NAD, NADH, NADP and NADPH levels as described previously. It is very important to stabilize the pyridine dinucleotides to prevent artifactual oxidation. NAD and NADP were stabilized by homogenization of brain regions in a cyanide containing solution. The cyanide reacts with the compounds forming cyano adducts that are stable. NADPH and NADH were stabilized by homogenizing brain regions in basic solution. NADPH and NADH are stable in base. Fortunately, the cyanide reaction proceeds optimally in base. Therefore, use of basic cyanide solutions during the homogenization produced optimal stabilization of NAD, NADP, NADH and NADPH. Following extraction with chloroform, centrifugation at 12,000 g for 5 minutes at 5° C., and filtration through 0.45μ positively charged nylon filters to remove DNA, the supernatants were injected onto a reverse phase HPLC column ("REXCHROME" ODS 5μ, Regis, Morton Grove, Ill.). Fluorescence detection (330 nm, excitation, 460 nm emission) was used to detect fluorescent NADH, NADPH and the cyano adducts of NAD and NADP.
# apoptotic cells in brain = settings: 21.9 mg/kg ICV; 48 hours; most abundant in thalamus and pons
# Procedure: The purpose of the apoptosis staining was to identify individual cells that may have undergone apoptosis. Residues of digoxigenin nucleotide were added to the DNA by an enzyme terminal deoxynucleotidyl transferase (TdT) which catalyzes the addition of deoxyribonucleotide triphosphate to the 3'-OH end of single and double stranded DNA. Thus the targets for labeling are the numerous new 3'-OH DNA ends generated by DNA fragmentation, easily observable in morphologically identifiable nuclei and apoptotic bodies. The sections were then incubated with an antibody to digoxigenin residues. The antibody was coupled to peroxidase allowing visualization with 3,3'-diaminobenzidine. Other sections were stained with cresyl violet.
# A dose of 21.9 mg/kg of tBuOOH was administered ICV to C57BL/6 mice. The mice were anesthetized 48 hours after the tBuOOH administration and perfused through the left cardiac ventricle with 0.175M sodium phosphate and 0.155M sodium chloride (pH 7.5, PBS), then with 4% formaldehyde and 0.2% glutaraldehyde in PBS for six minutes with each solution at room temperature. The brains were then removed from the cranium after 2 hours of fixation and sliced coronally into 50μ sections with a vibrating microtome.
# In order to detect individual cells undergoing apoptosis, the In Situ Apoptosis Detection Kit, (Oncor, Gaithersburg, Md.) was used. […]
# catalase = settings: cited from earlier work
# glutathione peroxidase = settings: cited from earlier work
# [4] = 8 month old mice, 109.7 mg/kg t-BuOOH, 20 min
# [5] = 8 month old mice, 109.7 mg/kg t-BuOOH, 20 min, * p<0.05 vs control
# [6] = 24 month old mice, 21.9 mg/kg t-BuOOH ICV, 48 hours, * p<0.05 vs control
# [7] = 24 month old mice, 109.7 mg/kg t-BuOOH ICV, 20 min, * p<0.05 vs control
compound,measurement,setting,value
"CC(C)(C)OO [tBuOOH, t-butylhydroperoxide]",toxin concentration relative to the initial concentration within 5 minutes,"[1]; 110 mg/kg ICV, 8 month old mice",less than 50%
same,tBuOOH concentration curve in 2 month old mice,[1]; compared with 8 month old mice,virtually identical curve
same,concentration at 10 min,"[1]; mouse, brain, icv or intrathecal, 110 mg/kg ICV, 8 month old mice",~1000 µM
same,half-life,"[1]; mouse, icv or intrathecal, 110 mg/kg ICV, depending on the brain region",4 to 20 min
same,clearance of tBuOOH from the brain,"[1]; striatum of 8 month old mice, 110 mg/kg ICV","very rapid clearance of tBuOOH from the brain in the initial period, followed by a slower clearance"
same,DNA fragmentation in the cerebellum,"[2]; 2, 8 and 24 month old mice, 48 hours",increased significantly
same,DNA fragmentation in the cortex,[2]; 2 and 8 month old mice,no increase in DNA fragmentation in the cortex
same,"DNA fragmentation in the striatum, midbrain and hippocampus",[2]; 2 month old mice,increased DNA fragmentation
same,tBuOOH induced necrosis in the thalamus at 20 minutes,[2]; 8 and 24 month old vs 2 month old mice,8 and 24 month old mice are more sensitive than 2 month old mice
same,DNA fragmentation in the cortex,"[2]; 24 month old mice, also found in the hippocampus",robust increase in DNA fragmentation in the cortex
same,apoptosis induced DNA fragmentation in the thalamus,[2]; 48 hours after tBuOOH,found only in 24 month old mice
same,time of appearance of DNA fragments in the brain,[2]; after tBuOOH administration,≤ 2 min
same,time for NADPH to return to control values,NADPH,≤ 5 min
same,NADPH oxidation,NADPH; every brain region,oxidized rapidly
same,"DNA fragmentation, low dose",[3]; 8 month old mice,significantly higher DNA fragmentation values were seen only in the cerebellum
same,"DNA fragmentation, low dose",[3]; 24 month old mice,significant increases in DNA fragmentation were observed in almost all brain regions (except the striatum)
same,DNA fragmentation in the cortex or hippocampus,"[3]; 109.7 mg/kg, 8 month old mice",no significant increase in DNA fragmentation
same,DNA fragmentation in many brain regions,"[3]; 109.7 mg/kg, 24 and 8 month old mice",Significant DNA fragmentation
same,"DNA fragmentation, cortex",[3]; [4],0.83 ± 0.14 per gram of tissue
same,"DNA fragmentation, hippo",[3]; [4],0.768 ± 0.16 per gram of tissue
same,"DNA fragmentation, cerebellum",[3]; [5],1.16 ± 0.15 per gram of tissue
same,"DNA fragmentation, midbrain",[3]; [5],2.37 ± 0.43 per gram of tissue
same,"DNA fragmentation, striatum",[3]; [5],2.33 ± 0.46 per gram of tissue
same,"DNA fragmentation, thala",[3]; [5],2.65 ± 0.88 per gram of tissue
same,DNA fragmentation in the cerebellums (FIG. 5),"[3]; 8 month old mice, p<0.05",Statistically significantly different from control values and tBuOOH with nicotinamide
same,"DNA fragmentation, striatum","[3]; 24 month old mice, 21.9 mg/kg t-BuOOH ICV, 48 hours",1.94 ± 0.31 per gram of tissue
same,"DNA fragmentation, cerebellum",[3]; [6],1.71 ± 0.45 per gram of tissue
same,"DNA fragmentation, cortex",[3]; [6],1.55 ± 0.19 per gram of tissue
same,"DNA fragmentation, hippo",[3]; [6],1.43 ± 0.23 per gram of tissue
same,"DNA fragmentation, midbrain",[3]; [6],2.04 ± 0.53 per gram of tissue
same,"DNA fragmentation, thala",[3]; [6],2.13 ± 0.31 per gram of tissue
same,"DNA fragmentation, cerebellum",[3]; [7],1.84 ± 0.45 per gram of tissue
same,"DNA fragmentation, cortex",[3]; [7],1.73 ± 0.23 per gram of tissue
same,"DNA fragmentation, hippo",[3]; [7],1.44 ± 0.20 per gram of tissue
same,"DNA fragmentation, midbrain",[3]; [7],2.77 ± 0.65 per gram of tissue
same,"DNA fragmentation, striatum",[3]; [7],2.46 ± 0.33 per gram of tissue
same,"DNA fragmentation, thala",[3]; [7],2.52 ± 0.43 per gram of tissue
same,behavior of low dose animals,C57BL/6 mice; about 22 mg/kg ICV,move about freely and resemble mice treated ICV with 0.9% saline
same,appearance of high dose mice and death,C57BL/6 mice; about 110 mg/kg ICV,frequently appeared inactive until death
same,time of death after treatment,C57BL/6 mice; high dose (about 110 mg/kg ICV),about 2 hours
same,survival,C57BL/6 mice; low dose (about 22 mg/kg ICV),≥ 48 h
same,NAD levels after tBuOOH,NAD,slowly and partially depleted
same,apoptotic cells in the brain,apoptotic cells in brain,"Apoptotic cells were found in many brain regions, but were most abundant in the thalamus and pons"
same,substrate for catalase,catalase,not a substrate for catalase
same,detoxification by glutathione peroxidase,glutathione peroxidase,detoxified by glutathione peroxidase
